Key:
[1] = molecular target: T1, E. coli hinT (Escherichia coli, UniProt P0ACE7); experiment: 31P NMR phosphoramidase assay of purified protein; assay type: biochemical; conditions: 10 mM substrate, pH 7.2, 22° C.
T1 sequence (P0ACE7 1-119): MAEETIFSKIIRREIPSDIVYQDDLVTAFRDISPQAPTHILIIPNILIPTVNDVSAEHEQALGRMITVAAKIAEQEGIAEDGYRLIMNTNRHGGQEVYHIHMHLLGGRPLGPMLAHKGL
Protocol: (§1) Phosphoramidase activity in cell lysates was measured by the ^1H-decoupling mode of phosphorus-31 NMR spectroscopy (Varian VAC-300 spectrometer), which can clearly distinguish the substrate, AMP-NH2, and the product, adenosine 5′-monophosphate (AMP). NMR spectrometry is suitable for quantitation by integration of the area under the peak, which is proportional to the amount of nuclei present. The relative ratio of peak areas can be used to calculate the amount of turnover corrected based on a standard curve.
(§2) Cell lysates from E. coli Tuner(DE3)pLacI cells (Novagen) were obtained by treatment with lysozyme (1 mg/ml) and the DNA was precipitated by protamine sulfate followed by centrifugation to remove cell debris. The supernatant was dialyzed extensively against Buffer A (20 mM Tris (pH 7.0); 1 mM EDTA; 1 mM DTT, 0.01 mM PMSF) to remove cellular phosphates and nucleotides. Phosphate free cell lysates (0.75 mg total protein) were incubated with 5 mM AMP-NH2 in 0.5 ml reaction buffer (0.5 mM MgCl2, 20 mM HEPES (pH 7.2)) at 37° C. for intervals of 15 min, 30 min, and 12 h. The reactions were terminated by snap freezing in a dry ice/acetone slush bath and lyophilized for 5 h. The samples were then dissolved in NMR buffer (600 μL, 50 mM EDTA, 20 mM HEPES (pH 7.2), and 1 mM TMP (trimethylphosphate, internal standard)) and the insoluble portion was spun down by centrifugation at 12,500×g for 5 min. A ^31P NMR spectrum was then collected for the supernatant. For the low pH control experiment, 10 mM AMP-NH2 in reaction buffer (500 μL, pH 2.0) was incubated at 37° C. for 12 h and the 31p signal was detected under the same conditions.
(§3) Five recombinant purified proteins were tested with three commercial available compounds (Sigma): AMP-NH2, adenosine 5′-monophosphomorpholidate (AMP-Mor), and guanosine 5′-monophosphomorpholidate (GMP-Mor) (FIG. 1). The compounds (10 mM) were incubated with proteins (2.5-10 μg) in the reaction buffer (500 μL, 0.5 mM MgCl2, 20 mM HEPES (pH 7.2)) at 22° C. for intervals of 36 and 66 min. The reactions were quenched by adding 5 M NaOH (20 μL), followed by snap freezing in a dry ice/acetone slush bath, and lyophilized. The sample preparation for ^31P NMR measurement was as described above for the cell-lysate experiment except that the pH was adjusted by the addition of 12 μL 6 M HCl before NMR spectra were collected.

[2] = molecular target: T2, E. coli hinT-DHFR (Escherichia coli, UniProt P0ABQ4+P0ACE7); experiment: 31P NMR phosphoramidase assay of purified protein; assay type: biochemical; conditions: 10 mM substrate, pH 7.2, 22° C.
T2 construct: made in house; host or cells: E. coli Tuner(DE3)pLacI
Protocol: as §1, §2, §3

[3] = molecular target: T3, Human Hint1-DHFR (UniProt P0ABQ4+P49773); experiment: 31P NMR phosphoramidase assay of purified protein; assay type: biochemical; conditions: 10 mM substrate, pH 7.2, 22° C.
T3 construct: made in house; host or cells: E. coli (following the procedure for the hinT plasmid)
Protocol: as §1, §2, §3

[4] = molecular target: T4, Rabbit HINT1 (Oryctolagus cuniculus, UniProt P80912); experiment: 31P NMR phosphoramidase assay of purified protein; assay type: biochemical; conditions: 10 mM substrate, pH 7.2, 22° C.
T4 construct: made in house; host or cells: E. coli hinT deletion mutant
Protocol: as §1, §2, §3

[5] = molecular target: hHINT1 (Homo sapiens, UniProt P49773); experiment: 31P NMR phosphoramidase assay of purified protein; assay type: biochemical; conditions: 10 mM substrate, pH 7.2, 22° C.
Protocol: as §1, §2, §3

[6] = system: BB2-1 (-HINT) cell lysates; experiment: 31P NMR phosphoramidase activity in cell lysates of hinT deletion strain; assay type: biochemical, E. coli
Protocol: as §1
as §2, with “Phosphate free cell lysates (0.75 mg total protein) were incubated with 5 mM AMP-NH2 in 0.5 ml reaction buffer (0.5 mM MgCl2, 20 mM HEPES (pH 7.2)) at 37° C. for intervals of 15 min, 30 min, and 12 h.” left out
The E. coli hinT gene in strain BW25113 was disrupted as previously described (Datsenko & Wanner, 2000, PNAS USA, 97:6640-6645). Plasmid pKD3 and primers 7024 and 7025 (Table 2) were used for amplification of the chloramphenicol resistance marker (Cm^r). Stable chloramphenicol resistant transformants of BW25113 were tested by PCR with primers 7026 and 7027 to confirm correct recombination of the Cm^r marker into the hinT locus. A strain that tested positive by PCR was named BB1. Strain BB3 was constructed by removing the antibiotic resistance marker using Red recombinase as described previously (Datsenko & Wanner, supra). The hinT gene was amplified from the chromosomal DNA of E. coli strain BW25113 with primers 7328 and 7329. The product of this reaction was cloned into Bluescript SK+ using EcoRI and BamHI sites included in the primers' sequences. The resulting plasmid was named pB429. […] Plasmids pB432 and pB433 were obtained by cloning HindIII-EcoRI fragments containing wild type and H101A mutated alleles of hinT from plasmids pB429 and pB431 into plasmid pACYC184. All E. coli transformations were performed by electroporation.
To determine if E. coli hinT is solely responsible of the observed lysates' phosphoramidase activity, a mutant strain, BB1, in which the hinT gene was replace with the chloramphenicol resistance marker, was constructed. The phosphoramidase activities of the wild-type E. coli BL21 Star strain and the mutant strain lysates were determined (Table 3). […] (Table 2). Therefore, the adenosine phosphoramidase activity observed for E. coli cell lysates appears to be totally dependent on hinT.

For Nc1ncnc2c1ncn2[C@@H]1O[C@H](COP(N)(=O)O)[C@@H](O)[C@H]1O [AMP-NH2, Adenosine 5′-monophosphoramidate], the Specific activity [1] was 526 ± 27 nmol nmol^−1 min^−1, the Specific activity [2] was 753 ± 2 nmol nmol^−1 min^−1 and the Specific activity [3] was 388 ± 45 nmol nmol^−1 min^−1. The Specific activity [4] was 70.0 ± 1.3 nmol nmol^−1 min^−1, the Specific activity [5] was 196 ± 33 nmol nmol^−1 min^−1 and the “AMP formation with lysates of hinT deletion strain BB1” value [6] was “no AMP formation could be observed”. For the same molecule, the “Specific activity” value ([6]; 0.2 mg protein, 30 min) was 0 nmol/mg/min, the “Specific activity” value ([6]; 0.5 mg protein, 30 min) was 0 nmol/mg/min and the “Specific activity” value ([6]; 0.5 mg protein, 70 min) was 0 nmol/mg/min. For the same molecule, the “Specific activity” value ([6]; 0.5 mg protein, 1380 min) was 0 nmol/mg/min and the Average specific activity ([6]; average) was 0 nmol/mg/min.

— US20060014193A1, “Nucleoside phosphoramidates and nucleoside phosphoramidases” (priority 2004, published 2006)
